In ChEMBL document CHEMBL4507267 (2021):

Columns and labels:
[1] = biological target: 1-phosphatidylinositol 3-phosphate 5-kinase (Homo sapiens) (UniProt Q9Y2I7); details: Compound concentration 1000.0 nM
[2] = biological target: Tyrosine-protein kinase Lyn (Homo sapiens) (UniProt P07948); details: Compound concentration 1000.0 nM
[3] = biological target: Muscle, skeletal receptor tyrosine-protein kinase (Homo sapiens) (UniProt O15146); details: Compound concentration 1000.0 nM
[4] = biological target: Serine/threonine-protein kinase 38 (Homo sapiens) (UniProt Q15208); details: Compound concentration 1000.0 nM
[5] = system: Epidermal growth factor receptor (Homo sapiens), P00533 [UNDEFINED MUTATION]; details: Compound concentration 1000.0 nM
[6] = biological target: SRSF protein kinase 2 (Homo sapiens) (UniProt P78362); details: Compound concentration 1000.0 nM
[7] = biological target: Serine/threonine-protein kinase Nek6 (Homo sapiens) (UniProt Q9HC98); details: Compound concentration 1000.0 nM
[8] = biological target: TRAF2 and NCK-interacting protein kinase (Homo sapiens) (UniProt Q9UKE5); details: Compound concentration 1000.0 nM
[9] = biological target: Calcium/calmodulin-dependent protein kinase type 1B (Homo sapiens) (UniProt Q6P2M8); details: Compound concentration 1000.0 nM
[10] = biological target: cAMP-dependent protein kinase catalytic subunit beta (Homo sapiens) (UniProt P22694); details: Compound concentration 1000.0 nM
[11] = biological target: Calcium/calmodulin-dependent protein kinase type II subunit gamma (Homo sapiens) (UniProt Q13555); details: Compound concentration 1000.0 nM
[12] = biological target: Receptor tyrosine-protein kinase erbB-2 (Homo sapiens) (UniProt P04626); details: Compound concentration 1000.0 nM
[13] = biological target: 5-hydroxytryptamine receptor 2B (Homo sapiens) (UniProt P41595); details: Compound concentration 10.0 uM
[14] = biological target: Ribosomal protein S6 kinase alpha-6 (Homo sapiens) (UniProt Q9UK32); details: Compound concentration 1000.0 nM
[15] = system: Receptor-type tyrosine-protein kinase FLT3 (Homo sapiens), P36888 [D835Y]; details: Compound concentration 1000.0 nM
[16] = biological target: Protein kinase C epsilon type (Homo sapiens) (UniProt Q02156); details: Compound concentration 1000.0 nM
[17] = biological target: RAF proto-oncogene serine/threonine-protein kinase (Homo sapiens) (UniProt P04049); details: Compound concentration 1000.0 nM
[18] = biological target: Serine/threonine-protein kinase 16 (Homo sapiens) (UniProt O75716); details: Compound concentration 1000.0 nM
[19] = system: Epidermal growth factor receptor (Homo sapiens), P00533 [L858R]; details: Compound concentration 1000.0 nM
[20] = system: Hepatocyte growth factor receptor (Homo sapiens), P08581 [M1250T]; details: Compound concentration 1000.0 nM
[21] = biological target: Mitogen-activated protein kinase kinase kinase 1 (Homo sapiens) (UniProt Q13233); details: Compound concentration 1000.0 nM
[22] = biological target: 5'-AMP-activated protein kinase catalytic subunit alpha-1 (Homo sapiens) (UniProt Q13131); details: Compound concentration 1000.0 nM
[23] = system: Tyrosine-protein kinase ABL1 (Homo sapiens), P00519 [F317L]; details: Compound concentration 1000.0 nM
[24] = biological target: Serine/threonine-protein kinase D3 (Homo sapiens) (UniProt O94806); details: Compound concentration 1000.0 nM
[25] = biological target: Activin receptor type-1-like (Homo sapiens) (UniProt P37023); details: Compound concentration 1000.0 nM
[26] = system: Tyrosine-protein kinase ABL1 (Homo sapiens), P00519 [F317I]; details: Compound concentration 1000.0 nM
[27] = biological target: Serine/threonine-protein kinase LATS1 (Homo sapiens) (UniProt O95835); details: Compound concentration 1000.0 nM
[28] = biological target: Macrophage-stimulating protein receptor (Homo sapiens) (UniProt Q04912); details: Compound concentration 1000.0 nM
[29] = system: Receptor-type tyrosine-protein kinase FLT3 (Homo sapiens), P36888 [D835V]; details: Compound concentration 1000.0 nM
[30] = biological target: Serine/threonine-protein kinase Nek2 (Homo sapiens) (UniProt P51955); details: Compound concentration 1000.0 nM
[31] = biological target: Macrophage colony-stimulating factor 1 receptor (Homo sapiens) (UniProt P07333); details: Compound concentration 1000.0 nM
[32] = system: Epidermal growth factor receptor (Homo sapiens), P00533 [UNDEFINED MUTATION]; details: Compound concentration 1000.0 nM; remark: listed apart in the source
[33] = biological target: Cyclin-dependent kinase 4 (Homo sapiens) (UniProt P11802); details: Compound concentration 1000.0 nM
[34] = biological target: Serine/threonine-protein kinase VRK2 (Homo sapiens) (UniProt Q86Y07); details: Compound concentration 1000.0 nM
[35] = system: Epidermal growth factor receptor (Homo sapiens), P00533 [L858R,T790M]; details: Compound concentration 1000.0 nM
[36] = biological target: Ephrin type-A receptor 1 (Homo sapiens) (UniProt P21709); details: Compound concentration 1000.0 nM
[37] = biological target: Cyclin-dependent kinase 5 (Homo sapiens) (UniProt Q00535); details: Compound concentration 1000.0 nM
[38] = biological target: Dual specificity tyrosine-phosphorylation-regulated kinase 2 (Homo sapiens) (UniProt Q92630); details: Compound concentration 1000.0 nM
[39] = biological target: Discoidin domain-containing receptor 2 (Homo sapiens) (UniProt Q16832); details: Compound concentration 1000.0 nM
[40] = biological target: Serine/threonine-protein kinase PAK 1 (Homo sapiens) (UniProt Q13153); details: Compound concentration 1000.0 nM
[41] = biological target: Mitogen-activated protein kinase 4 (Homo sapiens) (UniProt P31152); details: Compound concentration 1000.0 nM
[42] = biological target: Serine/threonine-protein kinase RIO1 (Homo sapiens) (UniProt Q9BRS2); details: Compound concentration 1000.0 nM
[43] = system: Receptor-type tyrosine-protein kinase FLT3 (Homo sapiens), P36888 [K663Q]; details: Compound concentration 1000.0 nM
[44] = biological target: Serine/threonine-protein kinase WNK4 (Homo sapiens) (UniProt Q96J92); details: Compound concentration 1000.0 nM
[45] = biological target: G protein-coupled receptor kinase 3 (Homo sapiens) (UniProt P35626); details: Compound concentration 1000.0 nM

Chain of Dual specificity tyrosine-phosphorylation-regulated kinase 2 (Homo sapiens) (Q92630 whole entry, the tested form may be a part): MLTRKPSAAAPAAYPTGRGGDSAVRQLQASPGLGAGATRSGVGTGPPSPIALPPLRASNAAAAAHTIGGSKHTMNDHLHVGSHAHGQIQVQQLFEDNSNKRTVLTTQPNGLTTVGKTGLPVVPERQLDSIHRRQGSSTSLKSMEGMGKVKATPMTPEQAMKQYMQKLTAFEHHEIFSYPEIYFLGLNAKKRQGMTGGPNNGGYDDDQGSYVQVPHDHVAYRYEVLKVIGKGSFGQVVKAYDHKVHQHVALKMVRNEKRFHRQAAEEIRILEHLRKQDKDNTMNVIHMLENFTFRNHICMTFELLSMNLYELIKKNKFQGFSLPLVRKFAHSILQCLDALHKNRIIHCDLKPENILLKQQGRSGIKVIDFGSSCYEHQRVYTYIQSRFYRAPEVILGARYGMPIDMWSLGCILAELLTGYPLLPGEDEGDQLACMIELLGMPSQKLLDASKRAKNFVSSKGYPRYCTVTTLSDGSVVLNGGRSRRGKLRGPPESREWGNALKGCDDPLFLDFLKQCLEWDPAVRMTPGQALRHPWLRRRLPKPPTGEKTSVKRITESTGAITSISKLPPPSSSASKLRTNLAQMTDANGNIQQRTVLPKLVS
Chain of 5-hydroxytryptamine receptor 2B (Homo sapiens) (P41595 whole entry): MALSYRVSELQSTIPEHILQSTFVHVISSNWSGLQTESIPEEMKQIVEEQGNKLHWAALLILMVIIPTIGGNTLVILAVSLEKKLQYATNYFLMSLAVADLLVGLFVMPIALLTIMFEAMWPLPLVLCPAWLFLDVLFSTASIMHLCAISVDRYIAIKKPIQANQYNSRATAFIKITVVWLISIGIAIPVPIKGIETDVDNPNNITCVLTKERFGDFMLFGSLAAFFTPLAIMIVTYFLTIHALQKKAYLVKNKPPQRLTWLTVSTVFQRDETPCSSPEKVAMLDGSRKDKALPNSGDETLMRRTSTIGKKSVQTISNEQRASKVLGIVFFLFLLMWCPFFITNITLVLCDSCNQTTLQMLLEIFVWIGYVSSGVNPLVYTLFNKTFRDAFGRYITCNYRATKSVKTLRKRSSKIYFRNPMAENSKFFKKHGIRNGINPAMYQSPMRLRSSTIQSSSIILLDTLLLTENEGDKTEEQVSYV
Chain of Serine/threonine-protein kinase WNK4 (Homo sapiens) (Q96J92 whole entry): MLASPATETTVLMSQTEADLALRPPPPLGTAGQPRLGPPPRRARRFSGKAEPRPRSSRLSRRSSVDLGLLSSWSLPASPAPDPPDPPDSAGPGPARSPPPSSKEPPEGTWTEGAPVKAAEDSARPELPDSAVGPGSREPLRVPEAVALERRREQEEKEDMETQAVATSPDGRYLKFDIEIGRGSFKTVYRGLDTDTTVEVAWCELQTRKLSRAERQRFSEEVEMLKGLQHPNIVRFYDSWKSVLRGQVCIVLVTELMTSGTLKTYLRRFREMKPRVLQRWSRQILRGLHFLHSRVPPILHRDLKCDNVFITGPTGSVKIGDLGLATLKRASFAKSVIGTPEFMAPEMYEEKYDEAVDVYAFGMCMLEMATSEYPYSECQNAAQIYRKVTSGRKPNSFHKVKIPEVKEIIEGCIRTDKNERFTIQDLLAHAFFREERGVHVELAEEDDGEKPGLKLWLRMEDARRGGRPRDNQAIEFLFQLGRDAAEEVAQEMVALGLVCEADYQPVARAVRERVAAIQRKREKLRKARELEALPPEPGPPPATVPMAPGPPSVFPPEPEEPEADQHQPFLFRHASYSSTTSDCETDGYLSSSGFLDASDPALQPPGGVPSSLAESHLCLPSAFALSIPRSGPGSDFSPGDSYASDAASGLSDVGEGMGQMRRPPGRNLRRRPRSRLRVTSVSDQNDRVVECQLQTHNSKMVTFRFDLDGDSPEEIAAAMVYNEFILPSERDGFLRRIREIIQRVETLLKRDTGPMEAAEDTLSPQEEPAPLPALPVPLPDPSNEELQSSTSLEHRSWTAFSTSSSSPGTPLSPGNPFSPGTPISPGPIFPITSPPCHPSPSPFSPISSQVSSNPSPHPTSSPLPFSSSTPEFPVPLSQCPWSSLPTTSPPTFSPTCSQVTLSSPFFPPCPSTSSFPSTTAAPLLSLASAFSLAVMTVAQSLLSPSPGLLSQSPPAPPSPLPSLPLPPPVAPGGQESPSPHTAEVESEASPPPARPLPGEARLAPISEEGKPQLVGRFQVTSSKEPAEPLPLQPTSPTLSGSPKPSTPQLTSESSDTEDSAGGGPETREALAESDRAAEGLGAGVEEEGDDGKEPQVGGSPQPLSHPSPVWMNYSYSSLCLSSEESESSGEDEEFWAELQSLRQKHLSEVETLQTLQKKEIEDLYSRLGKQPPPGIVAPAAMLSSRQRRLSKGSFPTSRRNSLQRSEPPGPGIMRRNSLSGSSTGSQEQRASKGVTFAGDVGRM
Chain of Discoidin domain-containing receptor 2 (Homo sapiens) (Q16832 whole entry, the tested form may be a part): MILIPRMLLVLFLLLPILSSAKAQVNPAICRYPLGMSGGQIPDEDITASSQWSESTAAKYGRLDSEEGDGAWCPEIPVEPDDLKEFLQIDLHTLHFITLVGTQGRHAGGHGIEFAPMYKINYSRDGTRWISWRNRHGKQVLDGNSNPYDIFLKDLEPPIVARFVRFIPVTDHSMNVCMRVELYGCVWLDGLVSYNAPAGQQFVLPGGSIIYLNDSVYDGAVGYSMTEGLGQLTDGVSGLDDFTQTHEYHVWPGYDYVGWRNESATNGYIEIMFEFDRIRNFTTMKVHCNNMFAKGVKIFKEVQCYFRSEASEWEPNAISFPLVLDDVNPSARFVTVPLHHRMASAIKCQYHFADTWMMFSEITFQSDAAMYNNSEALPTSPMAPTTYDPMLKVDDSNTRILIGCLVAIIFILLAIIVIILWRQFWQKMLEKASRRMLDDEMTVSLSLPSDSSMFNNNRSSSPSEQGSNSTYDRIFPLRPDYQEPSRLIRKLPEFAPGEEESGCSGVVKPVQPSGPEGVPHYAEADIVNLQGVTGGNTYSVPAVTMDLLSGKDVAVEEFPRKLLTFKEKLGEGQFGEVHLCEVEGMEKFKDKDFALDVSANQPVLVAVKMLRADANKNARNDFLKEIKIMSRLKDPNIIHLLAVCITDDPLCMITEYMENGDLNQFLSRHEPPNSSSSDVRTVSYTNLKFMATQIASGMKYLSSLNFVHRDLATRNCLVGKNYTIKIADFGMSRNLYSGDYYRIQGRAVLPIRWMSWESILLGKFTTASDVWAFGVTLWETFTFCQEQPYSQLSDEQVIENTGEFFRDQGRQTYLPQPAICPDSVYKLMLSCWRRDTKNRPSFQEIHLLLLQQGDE
Chain of Serine/threonine-protein kinase Nek2 (Homo sapiens) (P51955 whole entry): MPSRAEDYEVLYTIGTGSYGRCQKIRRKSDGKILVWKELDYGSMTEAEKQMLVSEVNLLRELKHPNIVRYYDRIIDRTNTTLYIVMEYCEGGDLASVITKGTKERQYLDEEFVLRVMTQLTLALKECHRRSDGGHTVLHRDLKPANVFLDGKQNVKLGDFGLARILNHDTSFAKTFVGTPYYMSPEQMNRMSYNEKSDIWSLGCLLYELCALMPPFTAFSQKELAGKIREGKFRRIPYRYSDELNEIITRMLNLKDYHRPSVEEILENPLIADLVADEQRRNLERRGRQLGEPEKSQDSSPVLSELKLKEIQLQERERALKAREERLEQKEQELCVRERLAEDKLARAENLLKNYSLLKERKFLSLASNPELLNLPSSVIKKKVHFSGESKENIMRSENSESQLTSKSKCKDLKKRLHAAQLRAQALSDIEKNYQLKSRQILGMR
Chain of Activin receptor type-1-like (Homo sapiens) (P37023 whole entry): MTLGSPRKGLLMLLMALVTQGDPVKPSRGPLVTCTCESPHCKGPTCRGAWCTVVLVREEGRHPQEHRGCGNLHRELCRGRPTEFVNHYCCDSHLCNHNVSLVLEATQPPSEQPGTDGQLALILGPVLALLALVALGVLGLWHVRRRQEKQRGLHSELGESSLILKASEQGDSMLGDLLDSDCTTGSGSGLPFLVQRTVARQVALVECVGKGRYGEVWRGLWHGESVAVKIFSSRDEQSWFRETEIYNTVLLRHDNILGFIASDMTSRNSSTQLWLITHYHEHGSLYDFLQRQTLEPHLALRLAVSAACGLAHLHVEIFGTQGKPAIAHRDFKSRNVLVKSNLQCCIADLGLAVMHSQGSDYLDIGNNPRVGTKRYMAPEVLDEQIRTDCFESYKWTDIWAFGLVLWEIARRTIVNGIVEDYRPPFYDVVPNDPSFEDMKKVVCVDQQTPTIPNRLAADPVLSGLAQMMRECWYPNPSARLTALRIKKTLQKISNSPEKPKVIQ
Chain of Serine/threonine-protein kinase 38 (Homo sapiens) (Q15208 2-465 limits assumed): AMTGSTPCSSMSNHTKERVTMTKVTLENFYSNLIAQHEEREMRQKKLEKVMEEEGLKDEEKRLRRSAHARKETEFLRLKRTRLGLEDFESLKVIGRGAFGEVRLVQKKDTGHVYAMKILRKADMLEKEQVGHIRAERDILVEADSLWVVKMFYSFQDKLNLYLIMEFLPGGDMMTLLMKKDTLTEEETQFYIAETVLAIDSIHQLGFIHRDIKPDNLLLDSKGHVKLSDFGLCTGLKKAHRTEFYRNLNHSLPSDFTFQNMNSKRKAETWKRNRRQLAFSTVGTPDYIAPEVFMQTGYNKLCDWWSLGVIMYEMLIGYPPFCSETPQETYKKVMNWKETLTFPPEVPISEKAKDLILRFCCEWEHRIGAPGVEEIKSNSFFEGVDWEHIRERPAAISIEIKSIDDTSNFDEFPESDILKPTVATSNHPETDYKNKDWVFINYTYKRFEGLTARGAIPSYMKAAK
Chain of Cyclin-dependent kinase 5 (Homo sapiens) (Q00535 whole entry, looked up): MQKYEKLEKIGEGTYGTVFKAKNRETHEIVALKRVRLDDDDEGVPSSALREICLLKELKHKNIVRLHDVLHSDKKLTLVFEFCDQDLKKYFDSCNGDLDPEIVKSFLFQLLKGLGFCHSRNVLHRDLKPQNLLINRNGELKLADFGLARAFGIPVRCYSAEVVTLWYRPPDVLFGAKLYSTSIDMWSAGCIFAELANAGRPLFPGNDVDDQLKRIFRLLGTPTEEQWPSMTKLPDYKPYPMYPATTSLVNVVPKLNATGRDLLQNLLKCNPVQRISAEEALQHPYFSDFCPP

Compound: Cc1c(NC(=O)c2cc(C(N)=O)nc3cc(F)ccc23)c(C(F)(F)F)nn1Cc1ccc(C(C)(C)C)cc1 [BAY-588]
- residual activity [1]: 100%
- residual activity [2]: 99%
- residual activity [3]: 97%
- residual activity [4]: 93%
- residual activity [5]: 75%
- residual activity [6]: 97%
- residual activity [7]: 86%
- residual activity [8]: 98%
- residual activity [9]: 100%
- residual activity [10]: 100%
- residual activity [11]: 82%
- residual activity [12]: 92%
- inhibition [13]: -8.78%
- residual activity [14]: 100%
- residual activity [15]: 100%
- residual activity [16]: 67%
- residual activity [17]: 88%
- residual activity [18]: 83%
- residual activity [19]: 100%
- residual activity [20]: 88%
- residual activity [21]: 100%
- residual activity [22]: 100%
- residual activity [23]: 98%
- residual activity [24]: 100%
- residual activity [25]: 94%
- residual activity [26]: 100%
- residual activity [27]: 100%
- residual activity [28]: 80%
- residual activity [29]: 100%
- residual activity [30]: 100%
- residual activity [31]: 100%
- residual activity [32]: 96%
- residual activity [33]: 100%
- residual activity [34]: 95%
- residual activity [35]: 100%
- residual activity [36]: 96%
- residual activity [37]: 76%
- residual activity [38]: 88%
- residual activity [39]: 93%
- residual activity [40]: 98%
- residual activity [41]: 100%
- residual activity [42]: 93%
- residual activity [43]: 100%
- residual activity [44]: 100%
- residual activity [45]: 100%

Compound: Cc1c(NC(=O)c2cc(C(N)=O)nc3cc(F)ccc23)c(C(F)(F)F)nn1Cc1ccc(C#N)cc1 [BAY-876]
- residual activity [1]: 92%
- residual activity [2]: 100%
- residual activity [3]: 95%
- residual activity [4]: 94%
- residual activity [5]: 79%
- residual activity [6]: 100%
- residual activity [7]: 100%
- residual activity [8]: 92%
- residual activity [9]: 64%
- residual activity [10]: 93%
- residual activity [11]: 86%
- residual activity [12]: 100%
- inhibition [13]: 11.1%
- residual activity [14]: 78%
- residual activity [15]: 92%
- residual activity [16]: 74%
- residual activity [17]: 86%
- residual activity [18]: 100%
- residual activity [19]: 97%
- residual activity [20]: 91%
- residual activity [21]: 65%
- residual activity [22]: 86%
- residual activity [23]: 81%
- residual activity [24]: 74%
- residual activity [25]: 100%
- residual activity [26]: 96%
- residual activity [27]: 94%
- residual activity [28]: 76%
- residual activity [29]: 100%
- residual activity [30]: 100%
- residual activity [31]: 83%
- residual activity [32]: 61%
- residual activity [33]: 81%
- residual activity [34]: 72%
- residual activity [35]: 93%
- residual activity [36]: 74%
- residual activity [37]: 100%
- residual activity [38]: 88%
- residual activity [39]: 66%
- residual activity [40]: 100%
- residual activity [41]: 76%
- residual activity [42]: 93%
- residual activity [43]: 93%
- residual activity [44]: -0%
- residual activity [45]: 89%
